Values quoted from earlier work in patent publication US20230293063A1 (SOMNUS SCIENTIFIC LTD, priority 2020, published 2023).

CC(C)c1cccc(C(C)C)c1O [propofol, 2,6-diisopropylphenol]
fraction metabolized in the liver (Smits, Annaert and Allegaert, 2017): 90% | free fraction of the total drug concentration (blood): 2%
